# System: Maize
# Experiment: Plant growth promotion, maize whole plant biomass after drench of growing media
# Assay type: in vivo
substance,measurement,setting,value
trifloxystrobin,"Efficacy % (additional % of plant weight compared with untreated control, actual effect observed)","drench at planting, after 14 days",1%
same,"Found % (plant weight, 100% = untreated control)","drench at planting, after 14 days, relative to UTC",101%
same,Whole Plant Biomass,"growing media drenched at planting, measured after 14 days, trifloxystrobin 0.024 mg/pot, BEE 7.85 × 10^8 CFU/pot",2.69 g
